# Assay results as given in PMC8624133, “10th Trends in Medical Mycology Held on 8 to 11 October 2021, Aberdeen, Scotland, Organized by the European Confederation of Medical Mycology (ECMM)” (Journal of Fungi, 2021).
# B1: IL-18: Mouse cytokine IL-18 (protein, UniProt P70380 36-192, looked up)
# Interleukin-18: NFGRLHCTTAVIRNINDQVLFVDKRQPVFEDMTDIDQSASEPQTRLIIYMYKDSEVRGLAVTLSVKDSKMSTLSCKNKIISFEEMDPPENIDDIQSDLIFFQKRVPGHNKMEFESSLYEGHFLACQKEDDAFKLILKKKDENGDKSVMFTLTNLHQS
# What was measured:
# [1] = test system: Exophiala phaeomuriformis; assay: MIC, CLSI M27-A3; format: cell-based; details: read-out: MIC values
# Method: Materials & Methods: The aviation kerosone samples came from an aviation company in Porto Alegre, state of Rio Grande do Sul, Brazil. The fungi isolation was carried out using the modified ASTM D6974-09 Standard. In this procedure, 500 mL kerosene samples were filtered, in triplicate, under aseptic conditions, under vacuum, using a 0.22 μm membrane (Millipore). After filtering, the membranes were deposited in potato dextrose agar culture medium. The plates were incubated in an oven at 30 °C for seven days. After this period, the colonies were isolated in new culture media for purification of the isolates. Molecular identification was performed through the sequencing of ITS DNA regions. The profile of sensitivity to clinical antifungals was assessed following protocols M27-A3 of the Clinical and Laboratory Standards Institute (CLSI).
# [2] = test system: Rhizopus oryzae; assay: Pandemic Box screening, EUCAST protocol; format: cell-based; details: for inhibition of R. oryzae growth: 5 µM
# Method: (§1) Materials & Methods: An initial screening of the 400 compounds (5 µM) in this collection was performed with the Rhizopus oryzae, according to the EUCAST protocol. Compounds with activity against R. oryzae have also been tested against other mucormycosis etiological agents (Rhizopus microsporus e Rhizopus stolonifer) at concentrations ranging from 0.08 µM to 20 µM.
# [3] = test system: three Rhizopus species; assay: MIC and fungicidal activity; format: cell-based, Rhizopus oryzae, R. microsporus, R. stolonifer; details: for MIC: 0.08 µM to 20 µM tested
# Method: as §1
# [4] = test system: serious or life-threatening pulmonary aspergillosis; assay: Special Needs program: inhaled opelconazole in patients; format: in vivo, human
# Excerpt: Opelconazole has been supplied to patients with serious or life-threatening pulmonary aspergillosis who have not responded to available mold-active therapies under a Special Needs program regulated in the United Kingdom by the Medicines and Healthcare products Regulatory Agency. Successful outcomes in the first two patients who developed invasive pulmonary aspergillosis due to infections with A. fumigatus complex shortly after lung transplantation have been reported [Pagani 2020].
# [5] = following inhaled delivery, ref Colley T et al., 2017, 2019; cited from earlier work
# Excerpt: A potent, effective inhaled anti-fungal agent with prolonged lung tissue residence and minimal systemic […] would be a valuable adjunct to current therapeutic options. To date, treatment using inhaled antifungal agents has been limited to repurposing available systemic medicines. Opelconazole is a novel triazole antifungal agent which was specifically designed for inhaled use and which is being developed as an inhaled treatment for pulmonary fungal disease.
# [6] = test system: clinical dermatophyte isolates; assay: Inhibition of dermatophyte biofilm formation; format: cell-based
# Method: Materials and Methods: The study population consisted of 50 dermatophyte isolates that were collected from 2019 to 2020 from patients referred to the two mycology laboratory of Shiraz, Iran. The isolates were identified by ITS gene region sequencing. The suspension (equivalent to 0.5 McFarland) of the isolates was used to evaluate the ability of the isolates to form biofilms and also the effect of itraconazole, terbinafine and griseofulvin at concentrations of 2–32 μg/mL on inhibiting biofilm formation. Two optical microscope and a scanning electron microscope were used to study the microscopic structure of biofilms formed on the surface of 96-well plate wells.
# [7] = test system: Trichophyton spp.; assay: Agar-based screening method; format: cell-based; details: 0.5 McF, 5 days, 30 °C
# Method: Inter-experimental variation was evaluated by testing 10 isolates on three different days. Single-centre validation: After determining the optimal conditions for the agar screening method, 112 molecularly identified Trichophyton spp. clinical isolates were tested.
# [8] = test system: Sporothrix brasiliensis; assay: Murine subcutaneous sporotrichosis model; format: in vivo, Balb/c mice
# Method: Materials & Methods: 50 Balb/c mice, male, five to seven-week-old, were subcutaneous infected (left footpad) by a clinical isolate of S. brasiliensis (5.4 × 10^7 yeast/mice). Treatments started seven days post-inoculation (p.i) in all five groups (10 mice/each): G1 control group (placebo—receiving just the diluent of the drugs), G2 treatment group (itraconazole—ITZ 50 mg/kg); G3 to G5 DD treatment groups, 1, 5 and 10 mg/kg, respectively. All mice were treated once a day by oral gavage, for 30 consecutive days. Physical conditions and behavior were daily evaluated, and individual weight was weekly determined. At the 32nd day p.i. (48 h after the end of the treatments) animals were euthanasied and lung, liver, brain, kidneys, testicle and footpad were recovered aseptically and homogenized to mycological analysis. Fungal burden in each organ was measured by quantitatively counting colony-forming units (CFU). The determination of colony forming units (CFU)/gram of tissue (g) of S. brasiliensis in internal organs of groups were compared by non-parametric tests using Kruskal-Wallis combined with Wilcoxon. The weight loss assay was calculated considering the percentage of loss and/or increase between the value corresponding to the fungal inoculation day and to the end of the treatment.
# [9] = test system: C. albicans; format: cell-based, Candida albicans
# [10] = test system: C. parapsilosis; format: cell-based, Candida parapsilosis
# [11] = test system: C. glabrata; format: cell-based, Candida glabrata
# [12] = test system: C. tropicalis; format: cell-based, Candida tropicalis
# [13] = test system: C. krusei; format: cell-based, Candida krusei
# [14] = test system: Other species of Candida; format: cell-based, Candida spp.
# [15] = test system: refractory fungal disease; assay: FURI Phase 3 open-label study, refractory subset; format: in vivo, human; details: 44 refractory patients
# Excerpt: Methods: FURI patients were eligible for enrollment if they have proven or probable, severe mucocutaneous candidiasis, invasive candidiasis or invasive aspergillosis and documented evidence of failure, intolerance, or toxicity related to a currently approved standard-of-care antifungal treatment or could not receive approved oral antifungal options (e.g., susceptibility of the organism) and continued IV antifungal therapy was clinically undesirable or unfeasible.
# [16] = test system: invasive and mucocutaneous fungal infections; assay: FURI and CARES open-label studies combined; format: in vivo, human; details: 84 patients
# Excerpt: Methods: FURI subjects were eligible for enrollment if they had proven or probable severe mucocutaneous candidiasis, invasive candidiasis, invasive aspergillosis, or other fungal diseases with evidence of treatment failure, intolerance, or toxicity related to a currently approved standard-of-care antifungal treatment or if they were unable to receive an approved oral antifungal option (e.g., susceptibility of the organism) and a continued IV antifungal therapy was clinically undesirable or unfeasible.
# [17] = test system: R. delemar 99–880; assay: CLSI M38 in vitro susceptibility; format: cell-based, Rhizopus delemar
# Method: (§2) Methods & Materials: In vitro susceptibility was conducted by the CLSI M38 method using a clinical isolate of Rhizopus delemar (a common cause of mucormycosis). ICR mice were immunosuppressed with cyclophosphamide and cortisone acetate on days −2, +3, and +8, relative to infection with intratracheally instilled R. delemar. […] Mice survival through Day +21 served as the primary endpoint.
# [18] = test system: R. delemar; assay: Murine mucormycosis, immunosuppressed mice infected intratracheally; format: in vivo, ICR mice; details: n = 20/arm
# Method: as §2
# [19] = test system: McLDM strains; assay: EUCAST MIC, S. cerevisiae overexpressing M. circinelloides LDM, resistance phenotypes; format: cell-based, Saccharomyces cerevisiae
# [20] = test system: A. fumigatus (resistant to posaconazole strain v79-63); assay: Neutropenic animal model of invasive pulmonary aspergillosis; format: in vivo, CD-1 mice
# [21] = 11 treated patients and 1 on prophylaxis
molecule,measurement,setting,value
CC(=O)N1CCN(c2ccc(OCC3COC(Cn4ccnc4)(c4ccc(Cl)cc4Cl)O3)cc2)CC1 (stereo not shown) [ketoconazole],MIC,[1],125 µg/mL
"CCCCC(CC)CNC(=N)NC(=N)NCCCCCCNC(=N)NC(=N)NCC(CC)CCCC (stereo not shown) [MMV396785, Alexidine]",inhibition at 5 µM,"[2]; Rhizopus arrhizus, read-out: inhibition of R. oryzae growth",> 50%
same,fungicidal activity,[3],10 µM
same,MIC,[3]; Rhizopus,0.63 to 1.25 µM
c1cc(CN2CCCNCCNCCCNCC2)ccc1CN1CCCNCCNCCCNCC1 [MMV1580502],inhibition of R. oryzae growth,[2],more than 50%
Cc1cc(N2CCN(c3ccc(C(=O)Nc4ccc(F)cc4)cc3)CC2)ccc1OC[C@@H]1CO[C@@](Cn2cncn2)(c2ccc(F)cc2F)C1 [opelconazole],drug-drug interactions,[4]; [21],no drug-drug interactions reported
same,tolerability,[4]; [21],generally well tolerated
same,Favorable responses at 3 months,"[4]; patients who received opelconazole as treatment after no response to mold-active therapies, number of patients",9 out of the 11
same,local concentrations in the lung,[5],high
same,systemic bioavailability,[5],minimal
"COC1=CC(=O)C[C@@H](C)[C@]12Oc1c(Cl)c(OC)cc(OC)c1C2=O [griseofluvin, griseofulvin]",IC50,"[6]; inhibition of biofilm formation, read-out: mean concentrations of IC50",3.18 µg/mL
same,samples with IC50 in concentration <2,[6]; tested at 2–32 μg/mL,66%
Oc1c(C(Nc2nc3ccccc3s2)c2ccc(OC(F)F)cc2)ccc2cccnc12 (stereo not shown) [MMV019724],inhibition of R. oryzae growth,[2],more than 50%
CCC(C)(C)c1ccc(CC(C)CN2C[C@@H](C)O[C@@H](C)C2)cc1 (stereo partly shown) [amorolfine],optimal agar concentration preventing growth of WT isolates,[7],0.5 mg/L
"c1ccc([Se][Se]c2ccccc2)cc1 [DD, Diphenyl diselenide]",weight loss during treatment vs control group,[8]; DD 5 mg/kg,statistically higher rate of weight loss
same,fungal burden of internal organs vs placebo group,"[8]; oral gavage once a day, 30 days, ITZ 50 mg/kg, DD 1, 5 or 10 mg/kg",higher fungal burdens
CCc1nc(N)nc(N)c1C#CC(C)c1cc(OC)cc(-c2ccncc2)c1 (stereo not shown) [MMV1580844],inhibition of R. oryzae growth,[2],more than 50%
same,fungicidal activity,[3],did not show fungicidal activity
same,MIC,[3],0.08 µM
"Nc1nc(=O)[nH]cc1F [5-FC, 5-flucytosine]","I (intermediate) isolates, n (%)",[9],1 (0.5%)
same,"R (resistant) isolates, n (%)",[9],2 (1%)
same,"S (sensitive) isolates, n (%)",[9],199 (98.5%)
same,"I (intermediate) isolates, n (%)",[10],1 (0.6%)
same,"R (resistant) isolates, n (%)",[10],2 (01.2%)
same,"S (sensitive) isolates, n (%)",[10],170 (98.3%)
same,"I (intermediate) isolates, n (%)",[11],0 (0%)
same,"R (resistant) isolates, n (%)",[11],0 (0%)
same,"S (sensitive) isolates, n (%)",[11],71 (100%)
same,"I (intermediate) isolates, n (%)",[12],0 (0%)
same,"R (resistant) isolates, n (%)",[12],0 (0%)
same,"S (sensitive) isolates, n (%)",[12],57 (100%)
same,"I (intermediate) isolates, n (%)",[13],3 (42.9%)
same,"R (resistant) isolates, n (%)",[13],3 (42.9%)
same,"S (sensitive) isolates, n (%)",[13],1 (14.3%)
same,"I (intermediate) isolates, n (%)",[14],0 (0%)
same,"R (resistant) isolates, n (%)",[14],0 (0%)
same,"S (sensitive) isolates, n (%)",[14],26 (100%)
"CC(C)[C@@H](C)[C@@]1(C)CC[C@]2(C)[C@H]3CC[C@@H]4[C@@]5(COC[C@@]4(C)[C@@H](OC[C@](C)(N)C(C)(C)C)[C@H](n4ncnc4-c4ccncc4)C5)C3=CC[C@@]2(C)[C@@H]1C(=O)O [ibrexafungerp, Ibrexafungerp]",progression of disease,[15],6.8%
same,stable disease,[15],22.7%
same,"complete response, partial response or clinical improvement","[15]; oral, DRC-determined",59.1%
same,progression of disease,[16],5.9%
same,stable disease,[16],27.1%
same,"complete response, partial response and clinical improvement","[16]; oral, DRC-determined",65.1%
Cc1cccc(C)c1C(=O)Nc1nc(-c2ccccn2)cc2ccccc12 [MMV1581558],inhibition of R. oryzae growth,[2],more than 50%
Oc1cccc(C(Nc2nccs2)c2ccc3cccnc3c2O)c1 (stereo not shown) [MMV642550],inhibition of R. oryzae growth,[2],more than 50%
"CC(C)[C@@H](C)[C@@]1(C)CC[C@]2(C)[C@H]3CC[C@@H]4[C@@]5(COC[C@@]4(C)[C@@H](OC[C@](C)(N)C(C)(C)C)[C@H](n4ncnc4-c4ccncc4)C5)C3=CC[C@@]2(C)[C@@H]1C(=O)O [IBREXA, Ibrexafungerp]",minimum effective concentration (MEC),[17],> 8 µg/mL
same,% Survival,"[18]; through Day +21, placebo 0",35%
same,Median Survival,"[18]; treatment from 24 h post infection, IBREXA 30 mg/kg po BID 7 d, LAMB 10 mg/kg iv 4 d, POSA 30 mg/kg po QD 7 d, placebo 8",15 days
COc1cc(NS(=O)(=O)c2ccc(C)cc2)c2ncccc2c1 [MMV098836],inhibition of R. oryzae growth,[2],more than 50%
"CC(C)(C)C(O)C(Oc1ccc(Cl)cc1)n1cncn1 (stereo not shown) [TDM, triadimenol]",resistance characteristics,[19],same resistance characteristics as FLC
B1,log10CFU/lung,"[20]; mean ± SEM, 3 animals treated for 3 d, placebo 6.1 ± 0.08",4.82 ± 0.44 log10CFU/lung
same,survival rates,"[20]; survival recorded until 15 d, IL-18 10 ng/mouse intranasally daily -2 d till +7 d, posaconazole 16 mg/kg/day, groups of 10, control 20%",56%
